Data from patent US12673918B2, “Small molecule RPN13 inhibitors with antitumor properties” (The Johns Hopkins University, priority 2019, dated 2026).
Like-named read-outs stand apart in the source and are kept apart here.

Key:
FaDu = test: cells; details: Homo sapiens
ME180 = test: MTT cytotoxicity assay, ME180; type: cell-based; details: Homo sapiens, read-out: IC50 ME180
Description: (§1) Cell lines and cytotoxicity assays: All cell lines were obtained from the American Type Culture Collection (ATCC) and cultured in the specified medium supplemented with 10% fetal bovine serum, 100 IU/mL penicillin, and 100 μg/mL streptomycin at 37° C. in a humidified 5% CO2/95% air incubator. […] To assess drug cytotoxicity, cells were seeded at 2,500 cells/well (10,000 cells/well for MM lines) in 100 μL medium in 96-well plate and after 24 treated with compounds for 72 h, incubated according to the manufacturer's protocol with the Thiazolyl Blue Tetrazolium Bromide (Sigma, M2128) and A570 measured using a Benchmark Plus microplate spectrophotometer (BIO-RAD). IC50 data was analyzed by Graphpad Prism software.

ES2 = test: MTT cytotoxicity assay, ES2
PEO1 = test: cells; details: Homo sapiens, PEO1, read-out: cytotoxicity IC50 PEO1
Description: (§2) Cell lines and cytotoxicity assays: All cell lines were obtained from the American Type Culture Collection (ATCC) and cultured in the specified medium supplemented with 10% fetal bovine serum, 100 IU/mL penicillin, and 100 μg/mL streptomycin at 37° C. in a humidified 5% CO2/95% air incubator. […] To assess drug cytotoxicity, cells were seeded at 2,500 cells/well (10,000 cells/well for MM lines) in 100 μL medium in 96-well plate and after 24 treated with compounds for 72 h, incubated according to the manufacturer's protocol with the Thiazolyl Blue Tetrazolium Bromide (Sigma, M2128) and A570 measured using a Benchmark Plus microplate spectrophotometer (BIO-RAD). IC50 data was analyzed by Graphpad Prism software. In the chirality studies the cells were treated with compounds for 48 h, and the cells were incubated and measured via the preceeding protocols.

DLD-Seckle = test: MTT cytotoxicity assay, DLD-Seckle; details: read-out: cytotoxicity IC50 DLD-Seckle
Description: as §2

DLD1 = test: MTT cytotoxicity assay, DLD1; details: Homo sapiens, DLD-1, read-out: cytotoxicity IC50 DLD1
Description: as §2

Mouse Skin Keratinocytes = test: MTT cytotoxicity assay, mouse skin keratinocytes; type: cell-based; details: Keratinocyte, read-out: IC50 Keratinocytes
Description: as §1

SiHa = test: MTT cytotoxicity assay, SiHa
PEA2 = test: cells; details: read-out: cytotoxicity IC50 PEA2
Description: as §2

HEC-1A = test: MTT cytotoxicity assay, HEC-1A; details: read-out: cytotoxicity IC50 HEC-1A, Tables 3A/4B/4C
BR5-Luc = test: MTT cytotoxicity assay, BR5-Luc; details: read-out: cytotoxicity IC50 BR5-Luc, Tables 3A/4B/4C, BRCA2 − VE
KLE = test: MTT cytotoxicity assay, KLE; details: read-out: cytotoxicity IC50 KLE, Tables 3A/4B/4C
ID8-vegf = test: MTT cytotoxicity assay, ID8-vegf; details: read-out: cytotoxicity IC50 ID8-vegf, Tables 3A/4B/4C
MDA-MB-468 = test: cells; details: Homo sapiens, MDA-MB-468, read-out: cytotoxicity IC50 MDA-MB-468
Description: as §2

HCC1395 = test: MTT cytotoxicity assay, HCC1395; details: Homo sapiens, HCC1395, read-out: cytotoxicity IC50 HCC1395
PEO14 = test: cells; details: read-out: cytotoxicity IC50 PEO14
Description: as §2

BR5-FvB1 = test: MTT cytotoxicity assay, BR5-FvB1; details: Mus musculus, read-out: cytotoxicity IC50 BR5-FvB1
Description: as §2

SUM149 = test: cells; details: SUM149, read-out: cytotoxicity IC50 SUM149
Description: as §2

[1] = test system: polyubiquitinated proteins; test: Western blot of polyubiquitinated proteins, SKOV3 cells; type: cell-based, human; details: 4 h
Description: FIG. 14A illustrates SKOV3 cells treated with compounds for 4 h and analyzed by Western blot analysis with antibody to ubiquitin.
Antibodies, reagents, and Western Blot Analyses: Cell lysate (10-20 μg total protein) prepared in MPER (Pierce) from each sample was subjected to SDS-PAGE, transferred to PVDF membranes and analyzed by Western blot using antibodies specific Bax (#2772, Cell Signaling), ubiquitin (P4D1, sc-8017, Santa Cruz), PARP (#9542, BD Pharmingen), actin (#66009, Protein Tech Group), Tubulin(#66031, Protein Tech Group), ADRM1/Rpn13 (D9Z1U, #12019, Cell Signaling), Lys48-linkled ubiquitin (Apu 2, 05-1307, (Millipore), Annexin V (#559763, BD pharmingen), caspase-3 (51-68655X, BD Pharmingen) at the dilutions recommended by the manufacturers, and for secondary antibodies either peroxidase-linked anti-mouse IgG or anti-rabbit IgG (GE Healthcare UK Ltd) were utilized, HRP conjugated streptavidin (N100, Thermo Fisher) at the recommended dilution (1:5000). MitoTracker Red CMXRos reagent was purchased from ThermoFisher #M7512. The blots were developed using HyGLO chemiluminescent detection reagent (Denville).

intracellular GSH = test: Total GSH assay, ES2 cells; type: cell-based, human; details: ES2, 12 hr
Source text: FIG. 16B illustrates ES2 cells treated with compounds for 12 hr and the total GSH level assayed.
Recent insights indicate that ER stress and oxidative stress are highly interrelated biological process which regulate a wide range of signaling pathways in cells. […] Oxidative stress is characterized by an imbalance between the production of ROS and the availability of free GSH. Generation of ROS is considered an early event in the process of apoptotic cell death (68). To counteract ROS, cells upregulate antioxidant pathways including intracellular glutathione (GSH).
Luciferase and GSH assays: Sub-confluent cultures of cells were transfected with 4Ub-FL or FL plasmid using Lipofectamine 2000 reagent (Life Technologies). Cells were seeded at 10,000 cells/well in 96-wells plate 48 hr post transfection and incubated with compounds or vehicle (DMSO) at the doses and times indicated. Luciferase activity in cell lysate was determined with a luciferase assay kit (Promega) according to the manufacturer's instructions. Bioluminescence was measured by using a Glomax Multidetection system (Promega). Glutathione was assayed using the Promega GSH assay kit (V6611).

ROS = ROS by Amplex Red, ES2 cells; type: cell-based, human; details: ES2, 12 hr; listed in order of potency
Description: FIG. 16C illustrates ES2 cells treated for 12 hr with compounds (or as a positive control, H2O2) at the indicated doses, and then reactive oxygen species (i.e. ROS) levels measured by adding Amplex Red and HRP.
Amplex Red Assay to measure ROS: Amplex Red reagent (#A12222, Thermo Scientific) combined with horseradish peroxidase (HRP) was used to detect H2O2. Briefly cells were treated in 96 well plates with corresponding compounds at indicated times. Next 50 μM Amplex® Red reagent plus 1 U/mL HRP in 50 mM sodium phosphate buffer, pH 7.4, were added to cells and incubated for 30 minutes at room temperature. Fluorescence was measured with a fluorescence-based microplate reader using excitation at 530±12.5 nm and detection at 580±25 nm. Background fluorescence of 969 units for Amplex® Red reagent, determined for a no-H2O2 control reaction, was subtracted from each value. H2O2 treatment (1 h) was used as positive control.

[2] = read-out: cytotoxicity IC50 FaDu
[3] = read-out: cytotoxicity IC50 ES2, Tables 3A/4B/4C, MTT assay
[4] = Table 3, MTT, 48 hr, normal Mouse Skin
[5] = read-out: cytotoxicity IC50 SiHa, Tables 3A/4B/4C, MTT assay

Structure (SMILES)	IC50 (ME180; ME-180, 48 h)	IC50 (PEO1)	IC50 (DLD-Seckle)	IC50 (DLD1)	IC50 (PEA2)	IC50 (HEC-1A)	IC50 (BR5-Luc)	IC50 (KLE)	IC50 (FaDu; [2])	IC50 (ES2; [3])	IC50 (ID8-vegf)	IC50 (MDA-MB-468)	IC50 (HCC1395)	IC50 (SiHa; [5])	IC50 (PEO14)	IC50 (BR5-FvB1)	IC50 (SUM149)	accumulation of polyubiquitinated proteins [1]	intracellular GSH concentrations (intracellular GSH)	level of ROS (Amplex Red) (ROS)	further results
O=C(CCl)N[C@@H](Cc1ccccc1)C(=O)N1C/C(=C\c2ccc([N+](=O)[O-])cc2)C(=O)/C(=C/c2ccc([N+](=O)[O-])cc2)C1 [RA375]	20 nM	27 nM	43 nM	24 nM	60 nM																IC50 (FaDu; 48 h, read-out: IC50 FaDu): 142 nM; IC50 (ES2; read-out: IC50 ES2): 19 nM; IC50 (Mouse Skin Keratinocytes; Mus musculus, 48 h): > 1000 nM; IC50 (SiHa; read-out: IC50 SiHa): 41 nM
N[C@@H](Cc1ccccc1)C(=O)N1C/C(=C\c2ccc(Cl)c(Cl)c2)C(=O)/C(=C/c2ccc(Cl)c(Cl)c2)C1 [RA190, reference compound]		232 nM			396 nM	431 nM	38 nM	1590 nM	300 nM	115 nM	211 nM	300 nM	0.35 nM	603 nM	375 nM	250 nM	233 nM				IC50 (ME180; ME-180, Table 3, MTT, 48 hr, Cervical (HPV +ve)): 183 nM; IC50 (Mouse Skin Keratinocytes; [4]): > 1000 nM
CC(C)C[C@H](NC(=O)[C@H](Cc1ccccc1)NC(=O)c1cnccn1)B(O)O [Bortezomib, bortezomib, reference compound]		31 nM		4.8 nM	30 nM	153 nM	4.1 nM	1190 nM			1.5 nM				30 nM	< 20 nM	30 nM	enhanced the accumulation of polyubiquitinated proteins	reduced intracellular GSH concentrations	raised the level of ROS in a dose-dependent manner	IC50 (Mouse Skin Keratinocytes; [4]): > 100 nM
CC1/C(=C\c2ccc([N+](=O)[O-])cc2)C(=O)/C(=C/c2ccc([N+](=O)[O-])cc2)CN1C(=O)[C@H](Cc1ccccc1)NC(=O)CCl (stereo partly drawn) [RA414]		30 nM	< 40 nM	< 40 nM	30 nM	196 nM		1120 nM	78 nM	7.5 nM	< 40 nM	< 20 nM	< 15 nM	7.5 nM	30 nM		< 20 nM	enhanced the accumulation of polyubiquitinated proteins	reduced intracellular GSH concentrations	raised the level of ROS in a dose-dependent manner	
N[C@@H](Cc1ccccc1)C(=O)N1C/C(=C\c2ccc([N+](=O)[O-])cc2)C(=O)/C(=C/c2ccc([N+](=O)[O-])cc2)C1 [RA183, reference compound]	293 nM					378 nM		989 nM	150 nM	75 nM	198 nM	250 nM		263 nM				enhanced the accumulation of polyubiquitinated proteins		raised the level of ROS in a dose-dependent manner	IC50 (ES2; read-out: IC50 ES2, Table 3, MTT, 48 hr, Ovarian): 75 nM; IC50 (Mouse Skin Keratinocytes; Mus musculus, 48 h): > 1000 nM; IC50 (SiHa; read-out: IC50 SiHa, Table 3, MTT, 48 hr, Cervical (HPV +ve)): 263 nM
C[C@H]1/C(=C\c2ccc([N+](=O)[O-])cc2)C(=O)/C(=C/c2ccc([N+](=O)[O-])cc2)CN1C(=O)[C@@H](N)Cc1ccccc1		31 nM	55 nM	164 nM	64 nM	207 nM	5.7 nM	1460 nM	78 nM	40 nM		75 nM	75 nM	34 nM	92 nM	125 nM	20 nM	enhanced the accumulation of polyubiquitinated proteins	reduced intracellular GSH concentrations	raised the level of ROS in a dose-dependent manner	
